In general, IC50 refers to the point on the concentration scale where inhibition reaches its midpoint.

Results on four molecules are retold here after ChEMBL document CHEMBL2046394, “Isolation and characterization of α,β-unsaturated γ-lactono-hydrazides from Streptomyces sp” (J Nat Prod, 2012).

Active and inactive are the calls of the source. The rule behind the calls is not given here.

The test system of one experiment is Caco-2. The experiment can be described thus: Cytotoxicity against human Caco2 cells by MTT assay. The experiment is classed as functional, cell-based. In general terms: Tetrazolium assays rely on reduction of a dye to a coloured formazan, in cell work by metabolically active cells.
The test system of another experiment is Bacillus subtilis. The experiment can be described thus: Antibacterial activity against Bacillus subtilis ATCC 6633 by disk inhibition zone method. The experiment is classed as functional, organism-based.
The subject of a further experiment is Micrococcus luteus. The experiment can be described thus: Antibacterial activity against Micrococcus luteus ATCC 10240 by disk inhibition zone method. The experiment is classed as functional, organism-based.
A further experiment has as its system Escherichia coli. The experiment can be described thus: Antibacterial activity against Escherichia coli ATCC 25922 by disk inhibition zone method. The class given is functional, organism-based.
The nature of experiment [1]: Cytotoxicity against human MDA231 cells assessed as growth inhibition after 72 hrs. Conditions: MDA-MB-231, 72 h. The class given is functional, cell-based.

For the molecule `COc1cc(/C=C/C(=O)N(CCc2c[nH]c3ccc(O)cc23)N(CCc2c[nH]c3ccc(O)cc23)C(=O)/C=C/c2ccc(O)c(OC)c2)ccc1O` [MONTAMINE], the IC50 in the experiment on Caco-2 was 43.9 µM.

In the case of `CCCC/C=C\N(NC(C)=O)C(=O)CCC1=CCOC1=O` [GERALCIN B], the result in the experiment on Bacillus subtilis, with Micrococcus luteus and with Escherichia coli was inactive. The 50% inhibitory concentration (IC50) in experiment [1] stood at 5 µM.

Regarding `CCCCCCN(NC(=O)CO)C(=O)CCC1=CCOC1=O`, the outcome in the experiment on Bacillus subtilis, in the experiment with Micrococcus luteus and in the experiment with Escherichia coli was inactive.

Take `O=C(O)CCC1=CCOC1=O`: the result in the experiment with Bacillus subtilis, in the experiment on Micrococcus luteus and in the experiment on Escherichia coli was inactive.
